From patent publication US6926936B2, “Ink-jet recording sheet with improved ozone resistance” (Felix Schoeller Jr. Foto-und Spezialpapiere GmbH & Co. KG, priority 2002, dated 2005)

Experiment: Dissociation constant (Kb, pKb) of the water-soluble compounds

Kb (dissociation constant)	Compound	pKb
–	O=C([O-])c1ccc(O)cc1.[Na+] [4-Hydroxybenzoic acid Na salt]	12.1
1 × 10^−3	O.O.O.O.O.O.O.O.O.[Na+].[Na+].[Na+].[S-]c1nc([S-])nc([S-])n1 [Trisodium trithiocyanurate nonahydrate]	3
